Data reported in PubChem BioAssay AID2060887 (Molecular Pharmacology Branch, DTP, NCI, 2025).
Values joined by “and” are separate entries in the source; they are usually repeats but may differ in a detail not shown here. Equal values may be shown once.

Test system: 782815-120-R-J1-PDC complex spheroid viability
Test: Anticancer human tumor 782815-120-R-J1-PDC patient-derived colon adenocarcinoma cell line growth inhibition [RAS]
Details: for viability, T/C: stronger effect = lower value
Source text: RAS pathway inhibitors in Combinations in Complex Spheroids
A high-throughput screen of multi-cell type tumor spheroids was designed to identify active combinations of RAS pathway inhibitors and targeted small molecules. Complex spheroids include a stromal component modeled by human endothelial cells (HUVEC) and fibroblasts modeled by human mesenchymal stem cells (MSCs). The concentration ranges selected for each drug and investigational agent were based upon clinically achievable concentrations if the clinical Cmax of the agent was known.
Compounds. The drugs and investigational agents: abemaciclib (NSC768073), cobimetinib (NSC768068), divarasib (GDC6063, NSC841802), docetaxel (NSC628503), GDC-1971 (RLY-1971, NSC841576), gemcitabine (NSC613327), inavolisib (NSC800729), ipatasertib (NSC767898), KB-0742 (NSC834161), MRTX-1133 (NSC836407), osimertinib (NSC779217), RMC-4630 (NSC839698), RMC-6236 (NSC851965), RMC-6291 (NSC852671), Ro-3306 (NSC812927), sapanisertib (NSC764658), SN-38 (NSC673596), staurosporine (NSC755774), SY5609 (NSC837396), and tovorafenib (DAY101, NSC766906), were obtained from the National Cancer Institute (NCI) Developmental Therapeutics Program Chemical Repository. The FDA-approved anticancer drug set is available from the NCI Developmental Therapeutics Program. […] The stock solutions were prepared in dimethyl sulfoxide (DMSO, Sigma-Aldrich, St. Louis, MO, cat. D2650) at 800-fold the tested concentration and stored at -70 degrees C prior to their use. All drugs and investigational agents were tested over a range starting from a high concentration at or near the clinical Cmax and decreasing in half-log increments. If the clinical Cmax for an agent had not been determined, the highest concentration tested was 10 microM.
Cell Culture. All cells were maintained in an incubator at 37 degrees C and 5% CO2 with 95% humidity. The PDC lines were cultured according to standard operating procedures established by the NCI PDMR. All PDCs were thawed and cultured in Matrigel-coated flasks prepared with a working solution of 1X Ham's F-12 nutrient mix, without supplementation (Invitrogen, Waltham, MA, cat. 11765054), 100 U/mL penicillin-streptomycin (Invitrogen, cat. 15140122), and 2.5% Matrigel (Corning Inc., Corning, NY, cat. 354248) for the first three passages. The 362531-283-R-J2-PDC and 782815-120-R-J1-PDC lines were cultured in 6C/Colon 1B media, which includes advanced DMEM/F-12 (Thermo Fisher Scientific, cat. 12634028), 10 mM HEPES (Thermo Fisher Scientific, cat. 15630080), 1X GlutaMAX supplement (Thermo Fisher Scientific, cat. 35050061), 0.1 mg/mL primocin (InvivoGen, San Diego, CA, cat. ant-pm-2), 10% defined fetal bovine serum, heat inactivated (HyClone Laboratories Inc., Logan, UT, cat. SH30070.03HI), 50% L-WRN conditioned media (ATCC, cat. CRL-3276), 1.25 mM N-Acetyl-L-cysteine (Sigma-Aldrich, cat. A9165), 10 mM nicotinamide (Sigma-Aldrich, cat. N0636), 1X B-27 supplement (Thermo Fisher Scientific, cat. 17504044), 1X N-2 supplement (Thermo Fisher Scientific, cat. 17502048), 50 ng/mL human EGF (Thermo Fisher Scientific, cat. PHG0311), and 10 microM Y-27632 dihydrochloride (Tocris Bioscience, cat. 1254). The K12877-001-R-J1-PDC line was cultured in 6I media, which includes all 6C/Colon 1B media plus 10 ng/mL human FGF-10 (PeproTech, cat. 100-26), 1 ng/mL human FGF-2 (PeproTech, cat. 100-18B), 1 µM prostaglandin E2 (Tocris Bioscience, cat. 2296), […] hydrocortisone (Sigma-Aldrich, cat. H4001), and […] bovine insulin (Sigma-Aldrich, cat. I6634). The K86415-001-R-J1-PDC line was cultured in 6D media, which includes all 6C/Colon 1B media components minus the L-WRN conditioned media. The 485176-168-R4-J1-PDC was cultured in PANC media, which includes all 6C/Colon 1B media plus 100 ng/mL human FGF-10 (PeproTech, cat. 100-26), 500 nM SB-431542 (Selleckchem, cat. S1067), and 10 nM gastrin (Tocris Bioscience, cat. 3006). […]

[1] = compound alone, run of 07/15/2024
[2] = compound alone, run of 07/09/2024
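Further: spheroids exposed to compounds for 7 days before reading.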
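Wherever viability, T/C is given: 100% = DMSO vehicle control viability.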

| Compound | IC50 [1] | IC50 (curve of compound) | IC50 [2] | viability, T/C (compound 0.0316 µM) | viability, T/C (compound 0.1 µM) | viability, T/C (compound 0.316 µM) | viability, T/C (compound 1 µM) | viability, T/C (compound 3.16 µM) | viability, T/C (compound 10 µM) | viability, T/C (compound 0.00316 µM) | viability, T/C (compound 0.01 µM) | viability, T/C (compound 0.000316 µM) | viability, T/C (compound 0.001 µM) | viability, T/C (compound 0.000949 µM) | viability, T/C (compound 0.003 µM) | viability, T/C (compound 0.03 µM) | viability, T/C (compound 0.0949 µM) | viability, T/C (compound 0.3 µM) | viability, T/C (compound 0.00949 µM) |
| --- | --- | --- | --- | --- | --- | --- | --- | --- | --- | --- | --- | --- | --- | --- | --- | --- | --- | --- | --- |
| C=CC(=O)Nc1cc(Nc2nccc(-c3cn(C)c4ccccc34)n2)c(OC)cc1N(C)CCN(C)C | – | > 1000 nM | – | 96.3% [middle of 4 runs] | 94.3% [middle of 4 runs] | 94.1% [middle of 4 runs] | 91.1% [middle of 4 runs] | – | – | 93.8% and 93.6% (2×) and 98% | 99.9% [middle of 4 runs] | – | – | – | – | – | – | – | – |
| CC(C)n1nc(-c2ccc3oc(N)nc3c2)c2c(N)ncnc21 | – | > 100 nM | – | 95.5% [middle of 4 runs] | 83.7% [middle of 4 runs] | – | – | – | – | 93.8% [middle of 4 runs] | 90.3% [middle of 4 runs] | 98.8% [middle of 4 runs] | 97.7% [middle of 4 runs] | – | – | – | – | – | – |
| CCC(CC)c1cc(NC2CCC(N)C2)n2nccc2n1 (stereo not given) | – | 2.34 µM [middle of 4 runs] | – | 103% [middle of 4 runs] | 93.2% [middle of 4 runs] | 103% [middle of 4 runs] | 99.6% [middle of 4 runs] | 34.1% [middle of 4 runs] | 1.98% [middle of 4 runs] | – | – | – | – | – | – | – | – | – | – |
| CCn1c(-c2cc(N3CCN(C)CC3)cnc2C(C)OC)c2c3cc(ccc31)-c1csc(n1)CC(NC(=O)C1CC1C)C(=O)N1CCCC(N1)C(=O)OCC(C)(C)C2 (stereo not given) | – | – | 4.66 nM [middle of 8 runs] | – | – | – | – | – | – | – | – | – | – | 84.7% [middle of 8 runs] | 60.1% [middle of 8 runs] | 20.7% [middle of 8 runs] | 16.4% [middle of 8 runs] | 14.7% [middle of 7 runs] | 35.1% [middle of 8 runs] |
| CCn1c(-c2cccnc2C(C)OC)c2c3cc(ccc31)N1CCOC(CC(NC(=O)C(C(C)C)N(C)C(=O)C3(F)CCN(C(=O)C#CC(C)(C)N(C)C)CC3)C(=O)N3CCCC(N3)C(=O)OCC(C)(C)C2)C1 (stereo not given) | – | – | > 300 nM | – | – | – | – | – | – | – | – | – | – | 95.4% [middle of 8 runs] | 100% [middle of 8 runs] | 98.5% [middle of 8 runs] | 96.5% [middle of 8 runs] | 89.1% [middle of 8 runs] | 95.8% [middle of 8 runs] |
| C[C@@H](NC(=O)c1ncnc(N)c1Cl)c1ncc(C(=O)Nc2cc(C(F)(F)F)c(Cl)cn2)s1 | – | > 10000 nM | – | 105% [middle of 4 runs] | 99.3% [middle of 4 runs] | 98.1% [middle of 4 runs] | – | 83% [middle of 4 runs] | 62.2% [middle of 4 runs] | – | – | – | – | – | – | – | – | – | – |
| Nc1ccn(C2OC(CO)C(O)C2(F)F)c(=O)n1 (stereo not given) | – | 60.1 nM [middle of 4 runs] | – | – | 40.8% [middle of 4 runs] | 27% [middle of 4 runs] | 25.6% [middle of 4 runs] | – | – | 91.4% [middle of 4 runs] | 71.8% [middle of 4 runs] | – | – | – | – | – | – | – | – |

More lines, main results first:

| IC50 [1] | IC50 (curve of compound) | IC50 [2] | Compound | viability, T/C (compound 0.0316 µM) | viability, T/C (compound 0.1 µM) | viability, T/C (compound 0.316 µM) | viability, T/C (compound 1 µM) | viability, T/C (compound 3.16 µM) | viability, T/C (compound 10 µM) | viability, T/C (compound 0.00316 µM) | viability, T/C (compound 0.01 µM) | viability, T/C (compound 0.000316 µM) | viability, T/C (compound 0.001 µM) | viability, T/C (compound 0.000949 µM) | viability, T/C (compound 0.003 µM) | viability, T/C (compound 0.03 µM) | viability, T/C (compound 0.0949 µM) | viability, T/C (compound 0.3 µM) | viability, T/C (compound 0.00949 µM) |
| --- | --- | --- | --- | --- | --- | --- | --- | --- | --- | --- | --- | --- | --- | --- | --- | --- | --- | --- | --- |
| > 10000 nM | – | – | C#Cc1c(F)ccc2cc(O)cc(-c3ncc4c(N5CC6CCC(C5)N6)nc(OCC56CCCN5CC(F)C6)nc4c3F)c12 (stereo not given) | 104% [middle of 8 runs] | 103% [middle of 8 runs] | 103% [middle of 8 runs] | 97.9% [middle of 8 runs] | 101% [middle of 8 runs] | 95% [middle of 8 runs] | – | – | – | – | – | – | – | – | – | – |
| > 1000 nM | > 1000 nM | – | C=CC(=O)N1CCN(c2nc(OCC3CCCN3C)nc3c(F)c(-c4nc(N)cc(C)c4C(F)(F)F)c(Cl)cc23)C(C)C1 (stereo not given) | 102% [middle of 12 runs] | 99.2% [middle of 12 runs] | 102% [middle of 12 runs] | 96.7% [middle of 12 runs] | – | – | 99.4% [middle of 12 runs] | 102% [middle of 12 runs] | – | – | – | – | – | – | – | – |
| – | > 10000 nM | – | CC(C)NCC(C(=O)N1CCN(c2ncnc3c2C(C)CC3O)CC1)c1ccc(Cl)cc1 (stereo not given) | 106% [middle of 4 runs] | 98.9% [middle of 4 runs] | 104% (2×) and 101% and 91.7% | 96% [middle of 4 runs] | 101% [middle of 4 runs] | 104% [middle of 4 runs] | – | – | – | – | – | – | – | – | – | – |
| – | > 10000 nM | – | CC(Nc1ccc2c(c1)OCCn1cc(N3C(=O)OCC3C(F)F)nc1-2)C(N)=O (stereo not given) | 102% (2×) and 103% and 93.2% | 97.5% [middle of 4 runs] | 90.9% [middle of 4 runs] | 87.2% [middle of 4 runs] | 100% [middle of 4 runs] | 93% [middle of 4 runs] | – | – | – | – | – | – | – | – | – | – |
| – | > 300 nM and 76.6 nM and 223 nM | – | CC1(C)CCC(Nc2ncc(C(F)(F)F)c(-c3c[nH]c4c(P(C)(C)=O)c(C#N)ccc34)n2)CN1 (stereo not given) | – | – | – | – | – | – | – | – | – | – | 107% [middle of 4 runs] | 85% [middle of 4 runs] | 65.3% [middle of 4 runs] | 59.4% [middle of 4 runs] | 57.8% [middle of 4 runs] | – |
| – | 4.69 µM [middle of 4 runs] | – | CC1(O)CCCC1n1c(=O)c(C(F)F)cc2cnc(NC3CCN(S(C)(=O)=O)CC3)nc21 (stereo not given) | 70.6% [middle of 4 runs] | 66.3% [middle of 4 runs] | 64.3% [middle of 4 runs] | 70% [middle of 4 runs] | 63.5% [middle of 4 runs] | 27% [middle of 4 runs] | – | – | – | – | – | – | – | – | – | – |
| – | > 1000 nM | – | CCN1CCN(Cc2ccc(Nc3ncc(F)c(-c4cc(F)c5nc(C)n(C(C)C)c5c4)n3)nc2)CC1 | 93.5% and 96.4% and 101% (2×) | 100% [middle of 4 runs] | 113% [middle of 4 runs] | 125% [middle of 4 runs] | – | – | 102% [middle of 4 runs] | 99.6% [middle of 4 runs] | – | – | – | – | – | – | – | – |
| – | 4.02 nM [middle of 4 runs] | – | CCc1c2c(nc3ccc(O)cc13)-c1cc3c(c(=O)n1C2)COC(=O)[C@]3(O)CC | – | – | – | – | – | – | – | – | – | – | 100% [middle of 4 runs] | 59.1% [middle of 4 runs] | 9.92% [middle of 4 runs] | 3.66% [middle of 4 runs] | 1.71% [middle of 4 runs] | 20.2% [middle of 4 runs] |
| – | 66 nM [middle of 4 runs] | – | O=C(c1ccc(F)c(F)c1Nc1ccc(I)cc1F)N1CC(O)([C@@H]2CCCCN2)C1 | 66.7% [middle of 4 runs] | 38.3% [middle of 4 runs] | 19.9% [middle of 4 runs] | 3.13% [middle of 4 runs] | – | – | 91.5% [middle of 4 runs] | 82.9% [middle of 4 runs] | – | – | – | – | – | – | – | – |
